The source of these data is US20250313879A1, “Fluorescent Probe for Detecting Peptide Bond Hydrolase” (The University of Tokyo, priority 2022, published 2025).

≈ marks a conversion by molar mass, not a printed value.

One series concerns the target T1, DPP4 (Homo sapiens, UniProt P27487).
T1 construct: from tissue; host or cells: human plasma of pancreatic cancer patients and healthy subjects
The series can be described thus: Diagnostic experiment of pancreatic cancer utilizing single-molecule enzyme activity of DPP4. In kind it is biochemical. How it is done: In order to detect the single-molecule enzyme activity of DPP4, an experiment to verify the availability of the probe GP-sHMRG to which Gly-Pro is bonded as a reaction point to detect a pancreatic cancer biomarker was performed in the following procedures. • 1. GP-sHMRG as a DPP4 detecting probe was diluted with an assay buffer to 100 μM. The composition of the assay buffer is 100 mM HEPES-NaOH (pH 7.4), 1 mM MgCl2, 1 mM CaCl2), 1 mM DTT, 3 mM Triton X-100. • 2. Next, human plasma samples collected from 30 patients with pancreatic cancer and 30 healthy subjects were each diluted by 2,500 times with the above assay buffer, and mixed in an equal amount with the diluted solution of GP-sHMRG. At this time, the final concentrations of both are 50 μM for the GP-sHMRG probe and 5,000 fold dilution for the human plasma sample. • 3. The mixed solution of both was then added to a microdevice, followed by the addition of sealing oil to enclose the solution in each well. • 4. The microdevice in which the solution was enclosed was incubated at 25° C. for 2 hours, and then the fluorescence intensity of each well was measured with a fluorescence microscope. […] The histogram created based on the detected fluorescence intensity of each well is approximated to a curve including two normal distributions.
Specifically, in this example, an ROC curve for determination based on the enzyme activity of DPP4 determined based on the proportion of the high activity group is created, and when a threshold is subtracted at the time when the proportion of the high activity group is 55%, the sensitivity is 37% and the specificity is 97% (the right view of FIG. 4). It is possible to determine pancreatic cancer by such an ROC curve.

In series [1] the test system is peptidase activity in human plasma sample. The series can be described thus: Enzyme activity assay in microdevice with human plasma, peptidase probes. The series is classed as biochemical. As to conditions: 50 μM probe, human plasma 5,000 fold dilution, 25° C. for 2 hours. How it is done: (§1) • 1. GP-sHMRG as a fluorescent probe for detecting peptidase activity was diluted with an assay buffer to 100 μM. The composition of the assay buffer is 100 mM HEPES-NaOH (pH 7.4), 1 mM MgCl2, 1 mM CaCl2, 1 mM DTT, 3 mM Triton X-100. • 2. Next, a human plasma sample was diluted by 2,500 times with the above assay buffer, and mixed in an equal amount with the diluted solution of the probe. At this time, the final concentrations of both are 50 μM for GP-sHMRG and 5,000 fold dilution for the human plasma sample. • 3. The mixed solution of both was then added to a microdevice, followed by the addition of sealing oil to enclose the solution in each well. • 4. The microdevice in which the solution was enclosed was incubated at 25° C. for 2 hours, and then the fluorescence intensity of each well was measured with a fluorescence microscope.
as §1, with “1. Ac-Ala-sHMRG” for “1. GP-sHMRG”, “by 250” for “by 2,500”, “for Ac-Ala-sHMRG” for “for GP-sHMRG”, “and 500” for “and 5,000”, “at 37°” for “at 25°”, “for 4” for “for 2”
• 1. Ac-GP-sSiR as a fluorescent probe for detecting peptidase activity was diluted with an assay buffer to 100 μM. The composition of the assay buffer is 100 mM HEPES-NaOH (pH 7.4), 1 mM MgCl2, 1 mM CaCl2, 1 mM DTT, 3 mM Triton X-100. • 2. […] The microdevice in which the solution was enclosed was incubated at 37° C. for 2 hours, and then the fluorescence intensity of each well was measured with a fluorescence microscope.

The nature of series [2]: Solubility in sealing oil (hexadecane). In kind it is physicochemical. The settings on record: oil or lipid, kinetic from dmso stock, room temperature (25° C.), three tests, average value±standard deviation. How it is done: That is, 1 μL of a 10 mM DMSO solution of the test compound was added with respect to 100 μL of hexadecane as sealing oil, and the mixture was sonicated and suspended at room temperature (25° C.) for 1 minute. Thereafter, the solution was centrifuged for 30 seconds, 50 μL of the supernatant was collected and mixed with 100 μL of methanol, and a compound dissolved in hexadecane was extracted. Thereafter, the methanol solution from which the compound was extracted was analyzed by ultra performance liquid chromatography (UPLC) (eluent: A/B=95/5>5/95, A: 0.1% formic acid-containing 100% H2O, B: 0.1% formic acid-containing 100% CH3CN), and the concentration of the compound in the methanol solution was calculated from the peak area. In the calculation of the solution concentration using the UPLC peak area, solutions having a plurality of concentrations were prepared and measured for each compound, then a calibration curve was prepared (FIG. 5), and the calculation was performed according to the calibration curve.

In series [3] the test system is dipeptidyl peptidase. The series can be described thus: Signal/noise ratio of enzymolysate in cuvette. In kind it is biochemical. The settings on record: 10 μM probe, 17 ng/mL dipeptidyl peptidase, 25° C. 9 hours, @527 nm. How it is done: (§2) For two types of compounds Glu-sSiR (PB206/Example 12) and GP-sHMRG (PB109/Example 7), the signal/noise ratios of the enzymolysates before and after the enzyme reaction in the cuvette and the microdevice were each measured as follows. In the following experiments, the composition of the assay buffer is 100 mM HEPES-NaOH (pH 7.4), 1 mM MgCl2, 1 mM CaCl2), […].
GP-sHMRG was diluted with an assay buffer so as to be 10 μM, then added to a quartz cuvette, and the fluorescence spectrum before the enzyme reaction was measured with a fluorometer (excitation wavelength: 500 nm). Thereafter, dipeptidyl peptidase was added so that the concentration in the solution was 17 ng/mL, the solution was incubated at 25° C. for 9 hours, and then the fluorescence spectrum was measured. The fluorescence spectra before and after the enzyme reaction were compared, the ratio of the values at a wavelength at which the fluorescence intensity was maximized was calculated as the signal/noise ratio of the enzymolysate, the ratio was 481 times (@527 nm) (see FIG. 7B).

Series [4] concerns dipeptidyl peptidase. The series can be described thus: Signal/noise ratio of enzymolysate in microdevice. The series is classed as biochemical. The settings on record: 30 μM probe, 0.2 ng/mL dipeptidyl peptidase, 25° C. 2 hours. How it is done:
as §2
For GP-sHMRG, three kinds of solutions of (iv) only an assay buffer, (v) 30 μM of GP-sHMRG, and (vi) 30 μM of GP-sHMRG and 0.2 ng/mL of dipeptidyl peptidase were prepared, and each solution was added to a microdevice, followed by the addition of sealing oil to enclose the solution in each well. The microdevice in which the solution was enclosed was incubated at 25° C. for 2 hours, and then the fluorescence intensity of each well was measured with a fluorescence microscope. When a difference between the average values of the fluorescence intensities of the respective wells in (v) and (iv) was defined as noise, a difference between the average value of the fluorescence intensities of the wells in which the enzyme was encapsulated in (vi) and the average value of the fluorescence intensities of the respective wells in (iv) was defined as a signal, and a ratio of these values was calculated as the signal/noise ratio of the enzymolysate, the ratio was 287 times (see FIG. 8, panel B). […]

[5] abbreviates: threshold: proportion of the high activity group is 55%, pancreatic cancer vs healthy.

T1 sequence (P27487 whole entry): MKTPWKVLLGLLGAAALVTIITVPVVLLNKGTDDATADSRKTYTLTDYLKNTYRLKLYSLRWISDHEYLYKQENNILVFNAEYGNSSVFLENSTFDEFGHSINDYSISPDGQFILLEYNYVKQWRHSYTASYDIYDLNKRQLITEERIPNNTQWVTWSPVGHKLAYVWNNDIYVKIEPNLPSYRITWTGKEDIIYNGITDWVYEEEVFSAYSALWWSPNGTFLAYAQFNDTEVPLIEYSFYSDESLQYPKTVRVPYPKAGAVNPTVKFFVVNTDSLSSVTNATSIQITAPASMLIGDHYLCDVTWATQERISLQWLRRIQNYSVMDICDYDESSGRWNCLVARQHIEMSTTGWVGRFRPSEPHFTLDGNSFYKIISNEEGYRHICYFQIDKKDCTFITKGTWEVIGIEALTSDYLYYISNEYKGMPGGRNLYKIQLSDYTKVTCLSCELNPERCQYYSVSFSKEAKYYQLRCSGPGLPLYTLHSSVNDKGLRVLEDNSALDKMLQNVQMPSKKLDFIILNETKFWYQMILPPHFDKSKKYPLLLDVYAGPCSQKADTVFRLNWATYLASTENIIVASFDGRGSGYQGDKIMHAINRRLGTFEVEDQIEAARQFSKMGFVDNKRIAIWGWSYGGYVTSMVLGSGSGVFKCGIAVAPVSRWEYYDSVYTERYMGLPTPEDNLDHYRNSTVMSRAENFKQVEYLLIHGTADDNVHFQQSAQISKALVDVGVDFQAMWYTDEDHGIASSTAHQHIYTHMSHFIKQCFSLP

Take `NCC(=O)N1CCCC1C(=O)Nc1ccc2c(c1)Oc1cc(N)ccc1C21OCc2cc(S(=O)(=O)O)ccc21` (stereo not shown) [GP-sHMRG]: the “ratio of the high activity group to the total of high and low activity groups” value at DPP4 (patients with pancreatic cancer compared with healthy subjects, 50 μM probe, plasma 5,000 fold dilution, 25° C. 2 hours) is on record as “significant increase”. Besides, on DPP4 (setting [5]), the “sensitivity (ROC curve, DPP4 activity)” value is given as 37% and the “specificity (ROC curve, DPP4 activity)” value is on record as 97%. Further, the “fluorescence intensity of wells in which the reacting enzyme was enclosed” value in series [1] is given as “increase in fluorescence intensity was observed”. Moreover, the concentration in solution in series [2] (solubility at 1 min) came to 0.27 ± 0.026 µM (≈ 0.149 µg/mL). Besides, the “signal/noise ratio of the enzymolysate” value in the series with dipeptidyl peptidase [3] is on record as 481 times. Further, in the series with dipeptidyl peptidase [4], the “signal/noise ratio of the enzymolysate” value is 287 times.
